# Legend:
# Solubility in water = assay type: physicochemical; conditions: final pH of the water solubility sample
# [1] = Hygroscopicity by dynamic vapor sorption (Example 6A, Q5000SA); assay type: physicochemical; conditions: after full sorption/desorption cycle
# Protocol: Hygroscopicity of polymorph Form 3 and polymorph Form 7 at 25° C. was determined by dynamic vapor sorption (DVS) using an automated vapor sorption balance (Q5000SA; TA instruments, New Castle, Del.). Hygroscopicity was studied as a function of relative humidity (RH) over the range of 0 to 90%. Approximately 10 mg of solid sample was placed directly onto the 13 mm quartz DVS sample cup and equilibrated at 0% relative humidity (RH) until a constant weight was achieved. After equilibration, the RH was increased in increments of 10% to reach 90%, and the water sorption was monitored. For desorption, the relative humidity was deceased in a similar manner to accomplish a full sorption/desorption cycle.
# For all experiments, the instrument was operated in dm/dt mode (mass variation over time) to determine when equilibrium was reached. A fixed dm/dt value of 0.0010% min^−1 was selected for all RH segments. A maximum stage of 360 minutes and a minimum stage of 60 minutes were selected for these experiments.
# [2] = Moisture sorption isotherms (Example 6B, Hiden IGASorp / SMS DVS Intrinsic); assay type: physicochemical; conditions: for Water absorbed up to 90% RH: 25 °C
# Protocol: Sorption isotherms were obtained using a Hiden IGASorp moisture sorption analyser, controlled by CFRSorp software. The sample temperature was maintained at 25° C. by a Huber re-circulating water bath. The humidity was controlled by mixing streams of dry and wet nitrogen, with a total flow rate of 250 ml/min. The relative humidity (RH) was measured by a calibrated Vaisala RH probe (dynamic range of 0-95% RH), located near the sample. The weight change, (mass relaxation) of the sample as a function of % RH was constantly monitored by the microbalance (accuracy±0.001 mg).
# 10-20 mg of sample was placed in a tared mesh stainless steel basket under ambient conditions. The sample was loaded and unloaded at 40% RH and 25° C. (typical room conditions).
# A moisture sorption isotherm was performed as outlined in Table 1 below (2 scans giving 1 complete cycle). The standard isotherm was performed at 25° C. at 10% RH intervals over a 0-90% RH range.
# The software uses a least squares minimization procedure together with a model of the mass relaxation, to predict an asymptotic value. The measured mass relaxation value must be within 5% of that predicted by the software, before the next % RH value is selected. The minimum equilibration time was set to 1 hour and the maximum to 4 hours. […] The sample was recovered after completion of the isotherm and re-analyzed by XRPD.
# In other cases, sorption isotherms were also obtained using a SMS DVS Intrinsic moisture sorption analyser, controlled by DVS Intrinsic Control software v1.0.1.2 (or v 1.0.1.3). […] The humidity was controlled by mixing streams of dry and wet nitrogen, with a total flow rate of 200 ml/min The relative humidity was measured by a calibrated Rotronic probe (dynamic range of 1.0-100% RH), located near the sample. The weight change, (mass relaxation) of the sample as a function of % RH was constantly monitored by the microbalance (accuracy±0.005 mg).
# 5-20 mg of sample was placed in a tared mesh stainless steel basket under ambient conditions. […] The sample was recovered after completion of the isotherm and re-analyzed by XRPD.
# [3] = PK study in pentagastrin- or famotidine-pretreated dogs; conditions: famotidine-pretreated dogs, similar tablet formulation
# Protocol: Pentagastrin pretreatment (6 μg/kg intramuscular injection 30 minutes prior to test formulation dosing) in fasted dogs was used to simulate fasting gastric pH in humans. Famotidine pretreatment (20 mg orally 1 hour prior to test formulation dosing) in fasted dogs was used to simulate human gastric pH when acid suppressant was co-dosed with test formulation. The tablets of the mono-MSA salt or bis-MSA salt of a compound of Formula I (conventional tablet and spray dried formulation) were orally administered followed by a 30 mL water flush.
Structure (SMILES),final pH (Solubility in water),Form by XRPD at the end of the DVS experiment [1],Water absorbed up to 90% RH ([2]; listed as Form 3),Form by XRPD after DVS analysis ([2]; after isotherm),Increase of AUC0-24 compared to the mono-MSA salt formulation [3],Water absorbed up to 90% RH ([2]; listed as Polymorph Form 7)
c1cn2cc(-c3ccc4cn[nH]c4c3)nc(Nc3ccc(N4CCOCC4)cc3)c2n1 [polymorph Form 3],(final pH <1.5),converted to Form 7,~20 wt. %,converted to Form 7,more than 10 fold,–
c1cn2cc(-c3ccc4cn[nH]c4c3)nc(Nc3ccc(N4CCOCC4)cc3)c2n1 [polymorph Form 7],–,–,–,–,–,~21 wt. %

# — patent publication US10266539B2, “Polymorph of Syk inhibitors” (Gilead Connecticut, Inc., priority 2013, dated 2019)
